One may read the IC50 as the point on the concentration scale where inhibition reaches its midpoint.

The target of the assay is T1, human A2A adenosine receptor (Homo sapiens, UniProt P29274).
T1 construct: expressed in transfected cells; host or cells: HEK293 or CHO cells
T1 sequence (P29274 whole entry): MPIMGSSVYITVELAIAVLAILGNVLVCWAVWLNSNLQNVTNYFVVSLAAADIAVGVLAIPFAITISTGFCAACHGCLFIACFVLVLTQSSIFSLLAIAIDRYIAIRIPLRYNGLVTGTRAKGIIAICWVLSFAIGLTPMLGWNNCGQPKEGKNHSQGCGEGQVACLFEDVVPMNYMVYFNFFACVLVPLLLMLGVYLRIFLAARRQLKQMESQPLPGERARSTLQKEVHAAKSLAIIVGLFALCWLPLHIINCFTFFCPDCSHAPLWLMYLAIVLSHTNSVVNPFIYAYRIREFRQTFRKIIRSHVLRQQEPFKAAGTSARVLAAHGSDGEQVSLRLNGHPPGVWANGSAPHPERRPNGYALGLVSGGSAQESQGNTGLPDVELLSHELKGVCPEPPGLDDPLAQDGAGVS
The assay can be described thus: A2A binding affinity, Method (B): scintillation proximity assay (SPA) with [3H]SCH58261. To be noted: membranes of HEK293 or CHO cells expressing the human receptor. An excerpt: Method (A) describes the procedure used to measure A2A binding affinity using radioligand binding. Method (B) describes the procedure used to measure A2A binding affinity using SPA technology. The method used to measure A2B binding affinity is also described below. The method used to determine the A2A IC50 value reported for each compound in the table is indicated next to the reported value. The A2B IC50 value measured using the A2B binding affinity assay is shown in the table next to the compound under the corresponding A2A value.
The A2A receptor affinity binding assay measured the amount of binding of a tritiated ligand with high affinity for the A2A adenosine receptor to membranes made from HEK293 or CHO cells recombinantly expressing the human A2A adenosine receptor, in the presence of varying concentrations of a compound of the invention. The data were generated using either filtration binding or a homogenous scintillation proximity assay (SPA).
Method (B): Measurement of A2A Binding Affinity Using SPA
Binding affinity using SPA was conducted as follows. Test compounds (50 nL) were dispensed into individual wells of a 384-well OptiPlate™ well (Perkin Elmer) by Echo® acoustic liquid transfer (Labcyte). 20 µL of 1.25 nM [^3H] SCH58261 ((7-(2-phenylethyl)-5-amino-2-(2-furyl)-pyrazolo-[4,3-e]-1,2,4-triazolo[1,5-c]pyrimidine)) in DPBS assay buffer (Dulbecco’s phosphate buffered saline without calcium and magnesium, ThermoFisher Scientific, Cat. No. A1285601) supplemented with 10 mM MgCl2 was added. A2A receptor-expressing membranes were incubated with 20 µg/mL adenosine deaminase (Roche, Cat. No. 10 102 105 001) for 15 min at room temperature. The receptor-expressing membranes were then combined with wheat germ agglutinin-coated yttrium silicate SPA beads (GE Healthcare, Cat. No. RPNQ0023) in a ratio of […] (w/w) and incubated for 30 min at room temperature. 30 µL of the membrane/bead mixture (0.25 µg and 25 µg per well respectively) were added to the 384-well OptiPlate™ well. To define total and non-specific binding, wells containing 1% DMSO or 1 µM CGS 15943 (Tocris Bioscience, Cat. No. 1699) respectively were also included in the experiment. The plate was incubated for 1 h at room temperature with agitation. The assay plate was then incubated for an h to allow the beads to settle before data were collected using a TopCount® (Perkin Elmer) scintillation counter. After normalization to total and non-specific binding, the percent effect at each compound concentration was calculated. The plot of percent effect versus the log of compound concentration was analyzed electronically using a 4-parameter logistic fit based on the Levenberg-Marquardt algorithm to generate IC50 values.
With `Nc1nc2c(F)cc(F)cc2c2nc(CCNCc3ccc(C(F)(F)F)cc3)nn12` [Example 10.2, 7,9-difluoro-2-(2-((4-(trifluoromethyl)benzyl)amino)ethyl)-[1,2,4]triazolo[1,5-c]quinazolin-5-amine], the IC50 turned out to be 110 nM.

With `COc1cccc2c1nc(N)n1nc(CN(C)c3cccnc3Br)nc21` [Example 10.3, 2-(((2-bromopyridin-3-yl)(methyl)amino)methyl)-7-methoxy-[1,2,4]triazolo[1,5-c]quinazolin-5-amine], the IC50 was determined as 41.6 nM.

Consider `CCNCc1nc2c3cccc(OC)c3nc(N)n2n1` [Example 10.4, 2-((ethylamino)methyl)-7-methoxy-[1,2,4]triazolo[1,5-c]quinazolin-5-amine], for which the IC50 was 46 nM.

`COc1cccc2c1nc(N)n1nc(CNCC(F)(F)F)nc21` [Example 10.5, 7-methoxy-2-(((2,2,2-trifluoroethyl)amino)methyl)-[1,2,4]triazolo[1,5-c]quinazolin-5-amine] gave an IC50 of 5.9 nM.

Compound `COc1cccc2c1nc(N)n1nc(CCCNCc3ccc(C(F)(F)F)cc3)nc21` [Example 10.6, 7-methoxy-2-(3-((4-(trifluoromethyl)benzyl)amino)propyl)-[1,2,4]triazolo[1,5-c]quinazolin-5-amine] had an IC50 of 8.7 nM. In turn, `COc1cccc2c1nc(N)n1nc(CCCNCc3ccc(S(F)(F)(F)(F)F)cc3)nc21` [Example 10.7, 7-methoxy-2-(3-((4-(pentafluoro-λ^6-sulfaneyl)benzyl)amino)propyl)-[1,2,4]triazolo[1,5-c]quinazolin-5-amine] displayed an IC50 of 45.2 nM.

`COc1cccc2c1nc(N)n1nc(CN[C@H](C)C(F)(F)F)nc21` [Example 10.8, (R)-7-methoxy-2-(((1,1,1-trifluoropropan-2-yl)amino)methyl)-[1,2,4]triazolo[1,5-c]quinazolin-5-amine] had an IC50 of 3.9 nM.

In turn, `COc1cccc2c1nc(N)n1nc(CN[C@@H](C)C(F)(F)F)nc21` [Example 10.9] registered an IC50 of 5.9 nM. With `COc1cccc2c1nc(N)n1nc(CNC(C)(C)C(F)(F)F)nc21` [Example 10.10, 7-methoxy-2-(((1,1,1-trifluoro-2-methylpropan-2-yl)amino)methyl)-[1,2,4]triazolo[1,5-c]quinazolin-5-amine], the IC50 was found to be 4.8 nM. Then `COc1cccc2c1nc(N)n1nc(CN(C)c3cccc(Br)n3)nc21` [Example 10.11, 2-(((6-bromopyridin-2-yl)(methyl)amino)methyl)-7-methoxy-[1,2,4]triazolo [1,5-c]quinazolin-5-amine], with 2.2 nM; and `COc1cccc2c1nc(N)n1nc(CNCC3CC3)nc21` [Example 10.12, 2-(((cyclopropylmethyl)amino)methyl)-7-methoxy-[1,2,4]triazolo[1,5-c]quinazolin-5-amine], with 27.3 nM. In the case of `COc1cccc2c1nc(N)n1nc(CN(CC(C)O)CC(C)O)nc21` (centres unmarked) [Example 10.13, 1,1-(((5-amino-7-methoxy-[1,2,4]triazolo[1,5-c]quinazolin-2-yl)methyl)azanediyl)bis(propan-2-ol)], the IC50 amounted to 32.2 nM. Compound `COc1cccc2c1nc(N)n1nc(CNCC3(c4cccc(F)c4)CCOCC3)nc21` [Example 10.14, 2-((((4-(3-fluorophenyl)tetrahydro-2H-pyran-4-yl)methyl)amino)methyl)-7-methoxy-[1,2,4]triazolo[1,5-c]quinazolin-5-amine] displayed an IC50 of 6.4 nM. With `COc1cccc2c1nc(N)n1nc(CN(CC(C)F)CC(C)F)nc21` (centres unmarked) [Example 13.1, 2-((bis(2-fluoropropyl)amino)methyl)-7-methoxy-[1,2,4]triazolo[1,5-c]quinazolin-5-amine] the figure was 3.3 nM; with `COc1cccc2c1nc(N)n1nc(CNCC3CCN(c4ncc(F)cn4)CC3)nc21` [Example 14.3, 2-((((1-(5-fluoropyrimidin-2-yl)piperidin-4-yl)methyl)amino)methyl)-7-methoxy-[1,2,4]triazolo[1,5-c]quinazolin-5-amine], 10 nM; with `COc1cccc2c1nc(N)n1nc(CN(CCC(F)(F)F)CC3CCN(c4ncc(F)cn4)CC3)nc21` [Example 14.4, 2-((((1-(5-fluoropyrimidin-2-yl)piperidin-4-yl)methyl)(3,3,3-trifluoropropyl)amino)methyl)-7-methoxy-[1,2,4]triazolo[1,5-c]quinazolin-5-amine], 38.2 nM.

Compound `CCN(Cc1ccc(C(F)(F)F)cc1)Cc1nc2c3cccc(OC)c3nc(N)n2n1` [Example 15.1, 2-((ethyl(4-(trifluoromethyl)benzyl)amino)methyl)-7-methoxy-[1,2,4]triazolo[1,5-c]quinazolin-5-amine] gave an IC50 of 3.2 nM. The compound `COc1cccc2c1nc(N)n1nc(CN(Cc3ccc(C(F)(F)F)cc3)CC3CC3)nc21` [Example 15.2, 2-(((cyclopropylmethyl)(4-(trifluoromethyl)benzyl)amino)methyl)-7-methoxy-[1,2,4]triazolo[1,5-c]quinazolin-5-amine] came in with a half-maximal inhibitory concentration (IC50) of 3 nM. Then `CCCN(Cc1ccc(C(F)(F)F)cc1)Cc1nc2c3cccc(OC)c3nc(N)n2n1` [Example 15.3, 7-methoxy-2-((propyl(4-(trifluoromethyl)benzyl)amino)methyl)-[1,2,4]triazolo[1,5-c]quinazolin-5-amine], with 2.3 nM. Then `COc1cccc2c1nc(N)n1nc(CN(Cc3ccc(C(F)(F)F)cc3)CC(C)C)nc21` [Example 15.4, 2-((isobutyl(4-(trifluoromethyl)benzyl)amino)methyl)-7-methoxy-[1,2,4]triazolo[1,5-c]quinazolin-5-amine], with 4.2 nM. In turn, `COc1cccc2c1nc(N)n1nc(CN(CCC(C)C)Cc3ccc(C(F)(F)F)cc3)nc21` [Example 15.5, 2-((isopentyl(4-(trifluoromethyl)benzyl)amino)methyl)-7-methoxy-[1,2,4]triazolo[1,5-c]quinazolin-5-amine] registered an IC50 of 101 nM. As to `COc1cccc2c1nc(N)n1nc(CN(CCC3CC3)Cc3ccc(C(F)(F)F)cc3)nc21` [Example 15.6, 2-(((2-cyclopropylethyl)(4-(trifluoromethyl)benzyl)amino)methyl)-7-methoxy-[1,2,4]triazolo[1,5-c]quinazolin-5-amine], the IC50 stood at 7.1 nM. `COc1cccc2c1nc(N)n1nc(CN(Cc3ccc(OC(F)(F)F)cc3)CC3CC3)nc21` [Example 15.7, 2-(((cyclopropylmethyl)(4-(trifluoromethoxy)benzyl)amino)methyl)-7-methoxy-[1,2,4]triazolo[1,5-c]quinazolin-5-amine] returned an IC50 of 3.9 nM.

In the case of `CCN(Cc1ccc(OC(F)(F)F)cc1)Cc1nc2c3cccc(OC)c3nc(N)n2n1` [Example 15.8, 2-((ethyl(4-(trifluoromethoxy)benzyl)amino)methyl)-7-methoxy-[1,2,4]triazolo[1,5-c]quinazolin-5-amine], the IC50 was 3.2 nM. With `COc1cccc2c1nc(N)n1nc(CN(Cc3ccc(OC(F)(F)F)cc3)CC3CCCC3)nc21` [Example 15.9, 2-(((cyclopentylmethyl)(4-(trifluoromethoxy)benzyl)amino)methyl)-7-methoxy-[1,2,4]triazolo[1,5-c]quinazolin-5-amine] the figure was 123 nM; with `COc1cccc2c1nc(N)n1nc(CN(Cc3ccc(OC(F)(F)F)cc3)CC3CCC3)nc21` [Example 15.10, 2-(((cyclobutylmethyl)(4-(trifluoromethoxy)benzyl)amino)methyl)-7-methoxy-[1,2,4]triazolo[1,5-c]quinazolin-5-amine], 8.5 nM.

`COc1cccc2c1nc(N)n1nc(CN(Cc3ccc(OC(F)(F)F)cc3)CC3CCCCC3)nc21` [Example 15.11, 2-(((cyclohexylmethyl)(4-(trifluoromethoxy)benzyl)amino)methyl)-7-methoxy-[1,2,4]triazolo[1,5-c]quinazolin-5-amine] gave an IC50 of 123 nM. The compound `COc1cccc2c1nc(N)n1nc(CN(CCc3ccc(C(F)(F)F)cc3)CC3CCC3)nc21` [Example 15.12, 2-(((cyclobutylmethyl)(4-(trifluoromethyl)phenethyl)amino)methyl)-7-methoxy-[1,2,4]triazolo[1,5-c]quinazolin-5-amine] had a half-maximal inhibitory concentration (IC50) of 23.6 nM. Then `COc1cccc2c1nc(N)n1nc(CN(C)CCc3ccc(C(F)(F)F)cc3)nc21` [Example 15.13, 7-methoxy-2-((methyl(4-(trifluoromethyl)phenethyl)amino)methyl)-[1,2,4]triazolo[1,5-c]quinazolin-5-amine], with 7.9 nM.

The values above are taken from patent publication US20230322785A1, “ADENOSINE A2A AND A2B RECEPTOR DUAL ANTAGONISTS FOR IMMUNO-ONCOLOGY” (Merck Sharp & Dohme LLC, priority 2020, published 2023).
